We go through ten compounds from ChEMBL document CHEMBL1201862, “PubChem BioAssay data set” (2004).

Among the test systems are MOLT-4; DU-145; SK-MEL-5; MDA-MB-435; NCI-H226; OVCAR-4; OVCAR-3; A498; HCT-116; MCF7; ACHN; UACC-257; PC-3; TK-10; SK-MEL-28; SK-OV-3; EKVX; SK-MEL-2; CAKI-1; 786-0.
What all share (test): DTP human tumour cell line panel, 48 h

Molecules are shown by their SMILES.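 Cultured in 96-well plates, cells were exposed to test compound for 48 hours across five concentrations. Here, GI50 denotes the concentration required for 50% inhibition of growth.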 Calls of active or inactive are those of the source. No stated cut-off is given here; in the data, active = GI50 up to about 1.1 µM and inactive = higher. Starred links: 1 amine or outer side, 2 acyl side, 3 side chain; linkers in the order of their positions; H or OH if unused. Positions of bridges follow the written chain, without caps; N, C: chain ends. Non-standard residues stand in square brackets, D forms with d. Residues, ends and D or L forms follow the SMILES beside them. Chains are numbered I, II in the order given. Actinocin(9to1) = Cc1c2oc3c(C)ccc(C(=O)[*:1])c3nc-2c(C(=O)[*:2])c(N)c1=O; NMeV = CN[CH](C(=O)O)C(C)C; Sar = CNCC(=O)O

Consider `Cc1ccc(S(=O)(=O)N2CCCN(S(=O)(=O)c3ccc(C)cc3)CC2)cc1`, for which the GI50 in the test on MOLT-4, with DU-145, in the test with SK-MEL-5, in the test with MDA-MB-435, in the test on NCI-H226 and with OVCAR-4 was > 100 µM (inactive) each time. Also, the GI50 in the test on OVCAR-3 was > 100 µM (inactive); in the test with A498, 2.75 µM (inactive); in the test on HCT-116, > 100 µM (inactive); in the test on MCF7 it was > 100 µM (inactive); in the test with ACHN, > 100 µM (inactive); in the test on UACC-257, > 100 µM (inactive). Further, the GI50 with PC-3, in the test with TK-10 and in the test on SK-MEL-28 was > 100 µM (inactive) in each case.

For `N#Cc1c(N)sc2c1-c1ccccc1OC2`, the GI50 was 17.5 µM (inactive) in the test on MOLT-4; 50.1 µM (inactive) in the test with DU-145; 45.3 µM (inactive) in the test with SK-MEL-5; 38.2 µM (inactive) in the test on SK-OV-3; 32.5 µM (inactive) with MDA-MB-435; 3.52 µM (inactive) in the test with EKVX. Also, the GI50 with NCI-H226 is 93.5 µM (inactive); with OVCAR-4, 26.5 µM (inactive); in the test with OVCAR-3, 22.3 µM (inactive); in the test with A498 it was 29.3 µM (inactive); with HCT-116 it was 27.3 µM (inactive); with MCF7, 40 µM (inactive). The GI50 with ACHN is 32.2 µM (inactive); in the test with UACC-257, > 100 µM (inactive); in the test on SK-MEL-2, 38.5 µM (inactive); in the test on PC-3, 32.4 µM (inactive); in the test with TK-10, 32.1 µM (inactive); in the test with SK-MEL-28 it was 44.2 µM (inactive).

For `COc1ccc(Nc2nc(N)c(C(=O)c3cccs3)s2)cc1`, the GI50 with MOLT-4 was 2.51 µM (inactive); in the test with DU-145, 5.56 µM (inactive); with SK-MEL-5, 2.8 µM (inactive); in the test with SK-OV-3, 20.6 µM (inactive); in the test on MDA-MB-435, 1.24 µM (inactive); with EKVX it was 16.9 µM (inactive). In addition, the GI50 with NCI-H226 was 5.86 µM (inactive); in the test on CAKI-1 it was 5 µM (inactive); in the test on 786-0, 8.49 µM (inactive); in the test on OVCAR-4, 9.73 µM (inactive); in the test on OVCAR-3, 3.47 µM (inactive); with A498, 6.68 µM (inactive). Further, the GI50 is 3.22 µM (inactive) in the test with HCT-116; 5.21 µM (inactive) in the test on MCF7; 12.2 µM (inactive) with ACHN; 9.31 µM (inactive) in the test with UACC-257; 10.9 µM (inactive) in the test on SK-MEL-2; 11.4 µM (inactive) in the test with PC-3. Also, the GI50 in the test on TK-10 is 5.08 µM (inactive); with SK-MEL-28, 31 µM (inactive).

On to `O=c1[nH]c(=S)[nH]n1C(=S)n1[nH]c(=S)[nH]c1=O`, for which the GI50 in the test on MOLT-4, in the test on DU-145, in the test with SK-MEL-5, with MDA-MB-435, in the test with EKVX and in the test on NCI-H226 was > 100 µM (inactive) in each case. The GI50 with CAKI-1 was > 100 µM (inactive); in the test with 786-0, > 100 µM (inactive); in the test with OVCAR-4, > 100 µM (inactive); with OVCAR-3, 41.7 µM (inactive); in the test on A498 it was > 100 µM (inactive); in the test on HCT-116 it was > 100 µM (inactive). Also, the GI50 is 2.94 µM (inactive) with MCF7; > 100 µM (inactive) with ACHN; > 100 µM (inactive) with UACC-257; > 100 µM (inactive) with SK-MEL-2; > 100 µM (inactive) in the test on PC-3; > 100 µM (inactive) in the test with TK-10. The GI50 in the test with SK-MEL-28 was > 100 µM (inactive).

Take `Cc1cc(C)n(C(=O)C(C)Sc2nnc(SC(C)C(=O)n3nc(C)cc3C)s2)n1` (stereo not drawn): the GI50 in the test on MOLT-4, in the test on DU-145, in the test on SK-MEL-5, in the test with SK-OV-3, in the test with MDA-MB-435 and in the test with EKVX was > 100 µM (inactive) in each case. Moreover, the GI50 in the test with NCI-H226, with CAKI-1, in the test on 786-0, in the test on OVCAR-4, in the test with OVCAR-3 and in the test on A498 was > 100 µM (inactive) in each case. Moreover, the GI50 in the test on HCT-116, in the test with MCF7, in the test on ACHN, with UACC-257, with SK-MEL-2 and in the test with PC-3 was > 100 µM (inactive) throughout. Also, the GI50 in the test with TK-10 and in the test with SK-MEL-28 was > 100 µM (inactive) in each case.

On to `O=C(NC1C(=O)NC(CCc2ccccc2)NC1=O)OCc1ccccc1` (stereo not drawn), for which the GI50 in the test with MOLT-4, in the test with DU-145, with SK-MEL-5, in the test with MDA-MB-435, in the test with EKVX and in the test with NCI-H226 was > 100 µM (inactive) each time. The GI50 with CAKI-1, in the test with 786-0, in the test on OVCAR-4, in the test on OVCAR-3, in the test with A498 and with HCT-116 was > 100 µM (inactive) in each case. Moreover, the GI50 in the test with MCF7, in the test with ACHN, with UACC-257, with PC-3, with TK-10 and in the test with SK-MEL-28 was > 100 µM (inactive) in each case.

For the compound `C=C1C(=O)O[C@@]23C1CC[C@@H](C)C2CC[C@@]1(C)OC31` (stereo partly drawn), the GI50 was 3.61 µM (inactive) in the test on MOLT-4; 3.85 µM (inactive) in the test with DU-145; 3.24 µM (inactive) in the test with SK-MEL-5; 16 µM (inactive) in the test on SK-OV-3; 4.25 µM (inactive) in the test on MDA-MB-435; 12.5 µM (inactive) with EKVX. For the same compound, the GI50 in the test with NCI-H226 is 23.9 µM (inactive); in the test with CAKI-1, 5.75 µM (inactive); in the test with 786-0 it was 5.71 µM (inactive); in the test with OVCAR-4, 8.91 µM (inactive); in the test with OVCAR-3, 3.27 µM (inactive); in the test with A498, 18.2 µM (inactive). Besides, the GI50 in the test with HCT-116 was 8.65 µM (inactive); in the test with MCF7, 5.96 µM (inactive); in the test on ACHN it was 12.4 µM (inactive); in the test on UACC-257, 6.75 µM (inactive); in the test on SK-MEL-2, 5.58 µM (inactive); in the test with PC-3 it was 5.05 µM (inactive). The GI50 in the test on TK-10 is 4.12 µM (inactive); in the test with SK-MEL-28 it was 6.35 µM (inactive).

On to `Cc1cc(N(CCC#N)CCC#N)ccc1C(/N=N/c1ccc(Cl)cc1)=N\NC(=O)c1ccccc1`, for which the GI50 with MOLT-4 was 40 µM (inactive); with DU-145 it was 44.7 µM (inactive); in the test with SK-MEL-5, 22 µM (inactive); in the test on SK-OV-3 it was 42.6 µM (inactive); in the test with MDA-MB-435, 5.62 µM (inactive); with EKVX, 37.9 µM (inactive). For the same compound, the GI50 in the test on NCI-H226 is 31.3 µM (inactive); in the test on CAKI-1, 98.9 µM (inactive); with 786-0 it was 34.6 µM (inactive); in the test with OVCAR-4, 47.8 µM (inactive); in the test on OVCAR-3, 42.1 µM (inactive); in the test with A498, 13.6 µM (inactive). Besides, the GI50 with HCT-116 is 26.5 µM (inactive); in the test with MCF7, 13.6 µM (inactive); in the test with ACHN, 82 µM (inactive); in the test with UACC-257 it was 58.7 µM (inactive); in the test on SK-MEL-2, 84.1 µM (inactive); with PC-3 it was 32.5 µM (inactive). The GI50 in the test with TK-10 was 60.5 µM (inactive).

`CC(=O)OC(C)(C)CCC(=O)[C@](C)(O)[C@H]1[C@H](O)C[C@@]2(C)[C@@H]3CC=C4C(C)=C(OC5OC(CO)C(O)C(O)C5O)C(=O)C[C@@H]4[C@]3(C)C(=O)C[C@]12C` (stereo partly drawn): the GI50 in the test on MOLT-4, in the test with DU-145, in the test with SK-MEL-5, in the test with SK-OV-3, with MDA-MB-435 and in the test on EKVX was > 100 µM (inactive) throughout. In addition, the GI50 in the test on NCI-H226, in the test on CAKI-1, in the test with 786-0, in the test with OVCAR-4, with OVCAR-3 and in the test on A498 was > 100 µM (inactive) each time. For the same compound, the GI50 in the test with HCT-116, in the test on MCF7, in the test with ACHN, in the test with UACC-257, with SK-MEL-2 and with PC-3 was > 100 µM (inactive) throughout. Moreover, the GI50 with TK-10 and in the test with SK-MEL-28 was > 100 µM (inactive) in each case.

In the case of `Cc1c2oc3c(C)ccc(C(=O)NC4C(=O)NC(Cc5ccc(O)cc5)C(=O)N5CCCC5C(=O)N(C)CC(=O)N(C)C(C(C)C)C(=O)OC4C)c3nc-2c(C(=O)NC2C(=O)NC(Cc3ccc(O)cc3)C(=O)N3CCCC3C(=O)N(C)CC(=O)N(C)C(C(C)C)C(=O)OC2C)c(N)c1=O` (stereo not drawn) (I: TYP[Sar][NMeV] / II: TYP[Sar][NMeV]; ester I:1-I:C, II:1-II:C; linker I:N-II:N via Actinocin(9to1); configuration not given here), the concentration for 50% growth inhibition (GI50) with MOLT-4 is 0.178 µM (active); with DU-145, 1.43 µM (inactive); in the test with SK-MEL-5, 0.163 µM (active); in the test with SK-OV-3, 10.5 µM (inactive); with MDA-MB-435 it was 1.93 µM (inactive); in the test on EKVX, 70.5 µM (inactive). The GI50 in the test on NCI-H226 was 0.957 µM (active); in the test with CAKI-1 it was 3.57 µM (inactive); with 786-0, 0.368 µM (active); with OVCAR-4, 1.14 µM (inactive); in the test on OVCAR-3 it was 1.63 µM (inactive); with A498, 16 µM (inactive). In addition, the 50% growth inhibitory concentration (GI50) was 0.11 µM (active) in the test on HCT-116; 0.0805 µM (active) in the test with MCF7; 0.397 µM (active) with ACHN; 1.56 µM (inactive) in the test with UACC-257; 4.11 µM (inactive) in the test with PC-3; 13.7 µM (inactive) with TK-10. Also, in the test with SK-MEL-28, the 50% growth inhibitory concentration (GI50) is 0.365 µM (active).
